Measured values as given in US12577234B2, “Antagonists of the muscarinic acetylcholine receptor M4” (Vanderbilt University, priority 2017, dated 2026).

Biological target: T1, human mAChR M4 (Homo sapiens, UniProt P08173)
T1 construct: expressed in transfected cells; host or cells: CHO-K1 (ATCC), stably co-expressing chimeric G protein Gqi5
T1 sequence (P08173 1-479): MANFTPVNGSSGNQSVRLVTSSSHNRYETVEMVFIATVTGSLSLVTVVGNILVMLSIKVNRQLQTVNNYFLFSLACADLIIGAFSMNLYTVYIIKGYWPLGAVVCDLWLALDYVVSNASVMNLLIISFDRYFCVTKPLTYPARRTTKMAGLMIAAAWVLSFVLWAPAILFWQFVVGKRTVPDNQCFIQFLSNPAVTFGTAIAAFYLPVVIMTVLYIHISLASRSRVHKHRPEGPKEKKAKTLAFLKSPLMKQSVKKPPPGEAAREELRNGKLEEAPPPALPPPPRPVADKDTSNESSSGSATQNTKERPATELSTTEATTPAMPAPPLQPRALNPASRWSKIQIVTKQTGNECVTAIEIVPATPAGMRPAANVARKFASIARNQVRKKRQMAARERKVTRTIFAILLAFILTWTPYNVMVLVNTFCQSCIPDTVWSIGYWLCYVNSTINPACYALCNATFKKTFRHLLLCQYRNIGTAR
Assay: mAChR M4 cell-based functional assay (calcium mobilization, EC80 acetylcholine), human M4
Conditions: Table 9; for IC50: M4/Gqi5/CHO-K1 cells, decrease of EC80 acetylcholine response; for Emin: human M4, % ACh maximum at 30 μM
Method: Human or rat M4 cDNA, along with the chimeric G protein Gqi5, were transfected into Chinese hamster ovary (CHO-K1) cells purchased from the American Type Culture Collection using Lipofectamine2000. M4/Gqi5/CHO cells were grown in Ham's F-12 medium containing 10% heat-inactivated fetal bovine serum (FBS), 20 mM HEPES, 500 μg/mL G418 sulfate, and 200 μg/mL Hygromycin B.
For high throughput measurement of agonist-evoked increases in intracellular calcium, CHO-K1 cells stably expressing muscarinic receptors were plated in growth medium lacking G418 and hygromycin at 15,000 cells/20 μL/well in Greiner 384-well black-walled, tissue culture (TC)-treated, clear-bottom plates (VWR). Cells were incubated overnight at 37° C. and 5% CO2. […] Compound master plates were formatted in a 10 point concentration-response curve (CRC) format (1:3 dilutions) in 100% DMSO with a starting concentration of 10 or 1 mM using a BRAVO liquid handler (Agilent). Test compound CRCs were then transferred to daughter plates (240 nL) using the Echo acoustic plate reformatter (Labcyte, Sunnyvale, CA) and then diluted into assay buffer (40 μL) to a 2× stock using a Thermo Fisher Combi (Thermo Fisher Scientific, Waltham, MA).
Calcium flux was measured using the Functional Drug Screening System (FDSS) 6000 or 7000 (Hamamatsu Corporation, Tokyo, Japan) as an increase in the fluorescent static ratio. Compounds were applied to cells (20 μL, 2×) using the automated system of the FDSS at 2 seconds into the protocol and the data were collected at 1 Hz. […] Agonist activity was analyzed as a concentration-dependent increase in calcium mobilization upon compound addition. Positive allosteric modulator activity was analyzed as a concentration-dependent increase in the EC20 acetylcholine response. Antagonist activity was analyzed as a concentration-dependent decrease in the EC80 acetylcholine response; for the purposes of the tables herein, an IC50 (inhibitory concentration 50) was calculated as a concentration-dependent decrease of the response elicited by an EC80 concentration of acetylcholine. Concentration-response curves were generated using a four-parameter logistical equation in XLFit curve fitting software (IDBS, Bridgewater, NJ) for Excel (Microsoft, Redmond, WA) or Prism (GraphPad Software, Inc., San Diego, CA) or the Dotmatics software platform (Dotmatics, Bishop's Stortford, UK).

Compound	IC50 [nM]	Emin [%]
Cc1cnn(C)c1-c1ccc(N[C@H]2C[C@@H]3CN(CCC(C)(C)C)C[C@@H]3C2)nn1 [Compound 1, (3aR,5s,6aS)-2-(3,3-Dimethylbutyl)-N-[6-(2,4-dimethylpyrazol-3-yl)pyridazin-3-yl]-3,3a,4,5,6,6a-hexahydro-1H-cyclopenta[c]pyrrol-5-amine]	8	13.1
Cc1nn(C)cc1-c1ccc(N[C@H]2C[C@@H]3CN(CC4CC5C=CC4C5)C[C@@H]3C2)nn1 (stereo partly drawn) [Compound 2, (3aR,5s,6aS)-2-(5-bicyclo[2.2.1]hept-2-enylmethyl)-N-[6-(1,3-dimethylpyrazol-4-yl)pyridazin-3-yl]-3,3a,4,5,6,6a-hexahydro-1H-cyclopenta[c]pyrrol-5-amine]	0.3	3.87
Cc1nn(C)cc1-c1ccc(N[C@H]2C[C@@H]3CN(CCC(C)(C)C)C[C@@H]3C2)nn1 [Compound 3, (3aR,5s,6aS)-2-(3,3-dimethylbutyl)-N-[6-(1,3-dimethylpyrazol-4-yl)pyridazin-3-yl]-3,3a,4,5,6,6a-hexahydro-1H-cyclopenta[c]pyrrol-5-amine]	0.6	4.99
Cc1nn(C)cc1-c1ccc(N[C@H]2C[C@@H]3CN(CC(C)C(C)(C)C)C[C@@H]3C2)nn1 (stereo partly drawn) [Compound 4, (3aR,5s,6aS)-N-[6-(1,3-dimethylpyrazol-4-yl)pyridazin-3-yl]-2-(2,3,3-trimethylbutyl)-3,3a,4,5,6,6a-hexahydro-1H-cyclopenta[c]pyrrol-5-amine]	2	2.81
Cc1nn(C)cc1-c1ccc(N[C@H]2C[C@@H]3CN(CC4CCOCC4)C[C@@H]3C2)nn1 [Compound 5, (3aR,5s,6aS)-N-[6-(1,3-dimethylpyrazol-4-yl)pyridazin-3-yl]-2-(tetrahydropyran-4-ylmethyl)-3,3a,4,5,6,6a-hexahydro-1H-cyclopenta[c]pyrrol-5-amine]	10	2.98
Cc1nn(C)cc1-c1ccc(N[C@H]2C[C@@H]3CN(CC4CCCOC4)C[C@@H]3C2)nn1 (stereo partly drawn) [Compound 6, (3aR,5s,6aS)-N-[6-(1,3-dimethylpyrazol-4-yl)pyridazin-3-yl]-2-(tetrahydropyran-3-ylmethyl)-3,3a,4,5,6,6a-hexahydro-1H-cyclopenta[c]pyrrol-5-amine]	11.4	3.33
Cc1nn(C)cc1-c1ccc(N[C@H]2C[C@@H]3CN(CC4CCCCC4)C[C@@H]3C2)nn1 [Compound 7, (3aR,5s,6aS)-2-(cyclohexylmethyl)-N-[6-(1,3-dimethylpyrazol-4-yl)pyridazin-3-yl]-3,3a,4,5,6,6a-hexahydro-1H-cyclopenta[c]pyrrol-5-amine]	10	2.72
Cc1nn(C)cc1-c1ccc(N[C@H]2C[C@@H]3CN(Cc4ccccc4)C[C@@H]3C2)nn1 [Compound 8, (3aR,5s,6aS)-2-benzyl-N-[6-(1,3-dimethylpyrazol-4-yl)pyridazin-3-yl]-3,3a,4,5,6,6a-hexahydro-1H-cyclopenta[c]pyrrol-5-amine]	10	3.22
Cc1nn(C)cc1-c1ccc(N[C@H]2C[C@@H]3CN(Cc4ccccn4)C[C@@H]3C2)nn1 [Compound 9, (3aR,5s,6aS)-N-[6-(1,3-dimethylpyrazol-4-yl)pyridazin-3-yl]-2-(2-pyridylmethyl)-3,3a,4,5,6,6a-hexahydro-1H-cyclopenta[c]pyrrol-5-amine]	45.8	3.96
Cc1cnn(C)c1-c1ccc(N[C@H]2C[C@@H]3CN(CC4CC5C=CC4C5)C[C@@H]3C2)nn1 (stereo partly drawn) [Compound 17, (3aR,5s,6aS)-2-(5-bicyclo[2.2.1]hept-2-enylmethyl)-N-[6-(2,4-dimethylpyrazol-3-yl)pyridazin-3-yl]-3,3a,4,5,6,6a-hexahydro-1H-cyclopenta[c]pyrrol-5-amine]	0.8	6.3
CCC(C)CN1C[C@H]2C[C@H](Nc3ccc(-c4c(C)cnn4C)nn3)C[C@H]2C1 (stereo partly drawn) [Compound 18, (3aR,5s,6aS)-N-[6-(2,4-dimethylpyrazol-3-yl)pyridazin-3-yl]-2-(2-methylbutyl)-3,3a,4,5,6,6a-hexahydro-1H-cyclopenta[c]pyrrol-5-amine]	90.2	2.90
CCCC(C)CN1C[C@H]2C[C@H](Nc3ccc(-c4c(C)cnn4C)nn3)C[C@H]2C1 (stereo partly drawn) [Compound 19, (3aR,5s,6aS)-N-[6-(2,4-dimethylpyrazol-3-yl)pyridazin-3-yl]-2-(2-methylpentyl)-3,3a,4,5,6,6a-hexahydro-1H-cyclopenta[c]pyrrol-5-amine]	10	3.11
Cc1cnn(C)c1-c1ccc(N[C@H]2C[C@@H]3CN(CC4CCCCC4)C[C@@H]3C2)nn1 [Compound 20, (3aR,5s,6aS)-2-(cyclohexylmethyl)-N-[6-(2,4-dimethylpyrazol-3-yl)pyridazin-3-yl]-3,3a,4,5,6,6a-hexahydro-1H-cyclopenta[c]pyrrol-5-amine]	1	7.16
Cc1cnn(C)c1-c1ccc(N[C@H]2C[C@@H]3CN(CC4CCOCC4)C[C@@H]3C2)nn1 [Compound 21, (3aR,5s,6aS)-N-[6-(2,4-dimethylpyrazol-3-yl)pyridazin-3-yl]-2-(tetrahydropyran-4-ylmethyl)-3,3a,4,5,6,6a-hexahydro-1H-cyclopenta[c]pyrrol-5-amine]	10	4.32
Cc1cnn(C)c1-c1ccc(N[C@H]2C[C@@H]3CN(CC4CCCOC4)C[C@@H]3C2)nn1 (stereo partly drawn) [Compound 22, (3aR,5s,6aS)-N-[6-(2,4-dimethylpyrazol-3-yl)pyridazin-3-yl]-2-(tetrahydropyran-3-ylmethyl)-3,3a,4,5,6,6a-hexahydro-1H-cyclopenta[c]pyrrol-5-amine]	81.5	4.08
Cc1cnn(C)c1-c1ccc(N[C@H]2C[C@@H]3CN(Cc4ccccc4)C[C@@H]3C2)nn1 [Compound 23, (3aR,5s,6aS)-2-benzyl-N-[6-(2,4-dimethylpyrazol-3-yl)pyridazin-3-yl]-3,3a,4,5,6,6a-hexahydro-1H-cyclopenta[c]pyrrol-5-amine]	118	3.85
Cc1cccnc1CN1C[C@H]2C[C@H](Nc3ccc(-c4c(C)cnn4C)nn3)C[C@H]2C1 [Compound 24, (3aR,5s,6aS)-N-[6-(2,4-dimethylpyrazol-3-yl)pyridazin-3-yl]-2-[(3-methyl-2-pyridyl)methyl]-3,3a,4,5,6,6a-hexahydro-1H-cyclopenta[c]pyrrol-5-amine]	37.8	5.36
Cc1cnn(C)c1-c1ccc(N[C@H]2C[C@@H]3CN(Cc4ccccc4F)C[C@@H]3C2)nn1 [Compound 25, (3aR,5s,6aS)-N-[6-(2,4-dimethylpyrazol-3-yl)pyridazin-3-yl]-2-[(2-fluorophenyl)methyl]-3,3a,4,5,6,6a-hexahydro-1H-cyclopenta[c]pyrrol-5-amine]	193	4.92
Fc1ccc(Cl)c(-c2ccc(N[C@H]3C[C@@H]4CN(CC56CC7CC(CC(C7)C5)C6)C[C@@H]4C3)nn2)c1 [Compound 26, (3aR,5s,6aS)-2-(1-adamantylmethyl)-N-[6-(2-chloro-5-fluoro-phenyl)pyridazin-3-yl]-3,3a,4,5,6,6a-hexahydro-1H-cyclopenta[c]pyrrol-5-amine]	128	3.20
Fc1ccc(Cl)c(-c2ccc(N[C@H]3C[C@@H]4CN(CC5CC6C=CC5C6)C[C@@H]4C3)nn2)c1 (stereo partly drawn) [Compound 27, (3aR,5s,6aS)-2-(5-bicyclo[2.2.1]hept-2-enylmethyl)-N-[6-(2-chloro-5-fluoro-phenyl)pyridazin-3-yl]-3,3a,4,5,6,6a-hexahydro-1H-cyclopenta[c]pyrrol-5-amine]	9.3	5.94
